According to US7989005B2, “Corosolic acid formulation and its application for weight-loss management and blood sugar balance” (Soft Gel Technologies, Inc., priority 2000, dated 2011):

What was measured:
[1] = system: Ehrlich Ascites tumor cells; conditions: in-vitro; cited from earlier work
[2] = Acute toxicity studies in rats, single oral limit-dose; format: in vivo; conditions: single oral limit-dose of 5 g/Kg
Source text: The Journal of the Philippine Medical Association, 22, #7, 395402, 1940; Garcia, F. Distribution and Deterioration of Insulin-like Principle in Lagerstroemia Speciosa (Banaba). Acta Medica Philippina, 99-104; Garcia, F., and Melencio-Maglalang, P. Application of Banabins (A Plantisul Preparation) and S. B. Menus to Diabetics. The Journal of the Philippine Medical Association, 33, #1, 7-16, 1957; Garcia, F. Criticisms and Answers on Published Articles concerning Banabins or Plantisul Tablets. The Journal of the Philippine Medical Association, 35, #5, 313-319, 1959; Garcia, L., Pojas, F., Castro, I., Venzon, E., Sisson, F. and Capal, T. Pharmaceutico-chemical and Pharmacological Studies on a Crude Drug from Lagerstroemia Speciosa. The Philippine Journal of Science, 116, #4, 361-375, 1987; Scalori V et al., Int. J. Tiss. Reac., 1983, X 2, 95-97).

## C[C@H]1[C@H](C)CC[C@]2(C(=O)O)CC[C@]3(C)C(=CC[C@@H]4[C@@]5(C)C[C@@H](O)[C@H](O)C(C)(C)[C@@H]5CC[C@]43C)[C@H]12 [Corosolic acid, 2-a-hydroxyursolic acid]
[1]
  cellular uptake of glucose: improves the cellular uptake of glucose
[2]
  acute toxicity: safe and non-toxic
